Reference: patent US20140243335A1, “SUBSTITUTED HYDOXAMIC ACIDS AND USES THEREOF” (Millennium Pharmaceuticals, Inc., priority 2010, published 2014)

molecular target: T1, purified human HDAC6 (Homo sapiens, UniProt Q9UBN7); assay: HDAC6 Enzyme Assay; assay type: biochemical; conditions: HDAC6 inhibition at a compound concentration of 0.412 μM; read-out: Percent Inhibition at 0.412 μM
T1 construct: purchased BPS Bioscience 5006
T1 sequence (Q9UBN7 1-1215): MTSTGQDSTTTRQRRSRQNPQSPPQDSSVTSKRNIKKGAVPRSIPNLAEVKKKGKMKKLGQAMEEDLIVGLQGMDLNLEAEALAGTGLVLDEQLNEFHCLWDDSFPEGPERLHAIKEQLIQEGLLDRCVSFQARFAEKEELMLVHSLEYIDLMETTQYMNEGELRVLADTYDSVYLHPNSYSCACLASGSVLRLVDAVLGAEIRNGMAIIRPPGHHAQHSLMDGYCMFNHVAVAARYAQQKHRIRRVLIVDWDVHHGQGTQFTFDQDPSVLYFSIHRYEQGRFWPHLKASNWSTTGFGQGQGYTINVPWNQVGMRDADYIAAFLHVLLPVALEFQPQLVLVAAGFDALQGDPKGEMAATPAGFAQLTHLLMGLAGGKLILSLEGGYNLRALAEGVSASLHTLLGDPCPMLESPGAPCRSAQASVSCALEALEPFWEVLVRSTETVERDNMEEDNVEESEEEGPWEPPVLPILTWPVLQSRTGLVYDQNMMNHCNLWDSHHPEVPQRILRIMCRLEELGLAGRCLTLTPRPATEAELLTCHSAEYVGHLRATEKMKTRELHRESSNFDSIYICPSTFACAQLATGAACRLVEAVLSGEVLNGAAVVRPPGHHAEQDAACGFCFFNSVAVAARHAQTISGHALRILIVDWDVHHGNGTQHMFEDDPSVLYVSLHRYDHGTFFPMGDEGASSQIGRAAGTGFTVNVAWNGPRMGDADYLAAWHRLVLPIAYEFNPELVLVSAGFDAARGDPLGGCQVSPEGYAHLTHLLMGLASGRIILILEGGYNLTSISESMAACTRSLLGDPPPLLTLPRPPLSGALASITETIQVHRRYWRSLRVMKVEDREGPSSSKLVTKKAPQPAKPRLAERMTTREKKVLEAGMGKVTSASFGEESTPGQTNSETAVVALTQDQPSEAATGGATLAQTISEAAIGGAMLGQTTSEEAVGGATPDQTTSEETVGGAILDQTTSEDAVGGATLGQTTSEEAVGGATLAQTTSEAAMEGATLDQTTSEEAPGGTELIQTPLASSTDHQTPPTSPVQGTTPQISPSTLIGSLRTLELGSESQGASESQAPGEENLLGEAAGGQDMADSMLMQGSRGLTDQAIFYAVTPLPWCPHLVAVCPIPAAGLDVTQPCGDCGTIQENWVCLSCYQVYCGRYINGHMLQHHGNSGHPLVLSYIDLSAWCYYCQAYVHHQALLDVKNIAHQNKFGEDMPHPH
Procedure: To measure the inhibition of HDAC6 activity, purified human HDAC6 (BPS Bioscience; Cat. No. 5006) is incubated with substrate Ac-Arg-Gly-Lys(Ac)-AMC peptide (Bachem Biosciences; Cat. No. I-1925) for 1 hour at 30° C. in the presence of test compounds or vehicle DMSO control. The reaction is stopped with the HDAC inhibitor trichostatin A (Sigma; Cat. No. T8552) and the amount of Arg-Gly-Lys-AMC generated is quantitated by digestion with trypsin (Sigma; Cat. No. T1426) and subsequent measurement of the amount of AMC released using a fluorescent plate reader (Pherastar; BMG Technologies) set at Ex 340 nm and Em 460 nm. Concentration response curves are generated by calculating the fluorescence increase in test compound-treated samples relative to DMSO-treated controls, and enzyme inhibition (IC50) values are determined from those curves.

Row | SMILES | inhibition at 0.412 µM
1 | O=C(NO)c1ccc2c(c1)CC(Nc1ccncc1)CC2 (stereo not drawn) [Compound I-95, N-hydroxy-7-(pyridin-4-ylamino)-5,6,7,8-tetrahydronaphthalene-2-carboxamide] | 71%
2 | O=C(NO)c1ccc2c(c1)CCC(NCc1ccc(Cl)cc1)C2 (stereo not drawn) [Compound I-106, 6-[(4-chlorobenzyl)amino]-N-hydroxy-5,6,7,8-tetrahydronaphthalene-2-carboxamide] | 90%
3 | CC(C)(C)OC(=O)N1CCC(C)(C(=O)Nc2cc(OC3CCc4cc(C(=O)NO)ccc4C3)ccn2)CC1 (stereo not drawn) [Compound I-214, tert-Butyl 4-({[4-({6-[(hydroxyamino)carbonyl]-1,2,3,4-tetrahydronaphthalen-2-yl}oxy)pyridin-2-yl]amino}carbonyl)-4-methylpiperidine-1-carboxylate] | 88%
4 | O=C(NO)c1ccc2c(c1)CC(c1ccncc1)CC2 (stereo not drawn) [Compound I-88, N-hydroxy-7-pyridin-4-yl-5,6,7,8-tetrahydronaphthalene-2-carboxamide] | 89%
5 | COc1cccc(NC2CCc3ccc(C(=O)NO)cc3C2)c1 (stereo not drawn) [Compound I-84, N-hydroxy-7-[(3-methoxyphenyl)amino]-5,6,7,8-tetrahydronaphthalene-2-carboxamide] | 82%
6 | O=C(NO)c1ccc2c(c1)CCC(c1ccccc1)C2 (stereo not drawn) [Compound I-100, N-hydroxy-6-phenyl-5,6,7,8-tetrahydronaphthalene-2-carboxamide] | 62%
7 | CC1(C)CCC(C)(C)c2cc(C(=O)NO)ccc21 [Compound I-74, N-hydroxy-5,5,8,8-tetramethyl-5,6,7,8-tetrahydronaphthalene-2-carboxamide] | 20%
8 | O=C(NO)c1ccc2c(c1)CC(c1ccc(Cl)cc1)CC2 (stereo not drawn) [Compound I-90, 7-(4-chlorophenyl)-N-hydroxy-5,6,7,8-tetrahydronaphthalene-2-carboxamide] | 82%

Results, then the compound that gave them:

Row | inhibition at 0.412 µM | SMILES
9 | 75% | CC(C)(C)C(=O)NC1CCc2cc(C(=O)NO)ccc2C1 (stereo not drawn) [Compound I-111, 6-[(2,2-dimethylpropanoyl)amino]-N-hydroxy-5,6,7,8-tetrahydronaphthalene-2-carboxamide]
10 | 77% | CN(C)Cc1cc(C(=O)NC2CCc3cc(C(=O)NO)ccc3C2)cc(C(F)(F)F)c1 (stereo not drawn) [Compound I-171, 6-{[3-[(dimethylamino)methyl]-5-(trifluoromethyl)benzoyl]amino}-N-hydroxy-5,6,7,8-tetrahydronaphthalene-2-carboxamide]
11 | 36% | Cc1oc(S(=O)(=O)N2CCCCC2)cc1C(=O)NC1CCCc2cc(C(=O)NO)ccc21 (stereo not drawn) [Compound I-37, N-{6-[(hydroxyamino)carbonyl]-1,2,3,4-tetrahydronaphthalen-1-yl}-2-methyl-5-(piperidin-1-ylsulfonyl)-3-furamide]
12 | -2% | O=C(NO)c1ccc2c(c1)CCCC2NC(=O)c1ccc2ncsc2c1 (stereo not drawn) [Compound I-28, N-{6-[(hydroxyamino)carbonyl]-1,2,3,4-tetrahydronaphthalen-1-yl}-1,3-benzothiazole-6-carboxamide]
13 | 11% | CCC(C)(C)C(=O)NC1CCCc2cc(C(=O)NO)ccc21 (stereo not drawn) [Compound I-15, 5-[(2,2-dimethylbutanoyl)amino]-N-hydroxy-5,6,7,8-tetrahydronaphthalene-2-carboxamide]
14 | 17% | CC(C)C(C(=O)NC1CCCc2cc(C(=O)NO)ccc21)c1ccccc1 (stereo not drawn) [Compound I-31, N-hydroxy-5-[(3-methyl-2-phenylbutanoyl)amino]-5,6,7,8-tetrahydronaphthalene-2-carboxamide]
15 | 35% | CCc1cc(C(=O)NC2CCCc3cc(C(=O)NO)ccc32)n(C)n1 (stereo not drawn) [Compound I-2, 3-ethyl-N-{6-[(hydroxyamino)carbonyl]-1,2,3,4-tetrahydronaphthalen-1-yl}-1-methyl-1H-pyrazole-5-carboxamide]
